In patent US6294568A, “5-arylpyrrole derivatives” (priority 1997, dated 2001):
Where two headings read alike, the source gives them in different places.

How the values were obtained:
CaCo-2 cells = assay: Cytostatic Action Test on Various Cells (XTT method); format: cell-based; settings: for IC50: Homo sapiens, read-out: Cytostatic rate (IC50)
Method: The cytostatic measurement of the various cancer cells were conducted according to the method of the U.S. National Cancer Institute (NCI). Adhesive cells such as CaCo-2 and HepG2 were adjusted in each of the specified culture mediums at 0.5×10^5 cells/ml concentration and pipetted into a 96 well-plate (Costar3695) in an amount of 100 μl/well. The cells were cultured under the conditions of at 37° C. in 5% CO2 atmosphere for 24 hours to allow the cell adhesion, and then the numbers of each of the cells were determined by the XTT method to be recorded as the cell number of day 0 (C0days). After that, only the medium solutions were exchanged in the control groups, and culture mediums each containing the test samples adjusted to each of the specified concentrations were exchanged In the test sample dispensing groups, then the cells were cultured under the conditions of at 37° C. in 5% CO2 atmosphere for 72 hours. The numbers of each of the cells were determined by the XTT method to be recorded as the cell number of day 3 (C3days). Further, only the medium solutions were pipetted into the control groups and the test sample administration groups were adjusted to 5×10^5 cells/ml concentrations in each of the specified culture mediums containing the test samples adjusted to each of the specified concentrations, then pipetted into a 96 well-plate (Costar3695) in an amount of 100 μl/well. The cells were cultured under the condition of at 37° C. in 5% CO2 atmosphere for 72 hours, and the number of each of the cells (T3days) were determined in the same manner.
Cell proliferation rate (%) with respect to control groups=[(T3days
-C0days)/(C3days -C0days)]×100 Formula: 5

Sarcoma 180 solid tumor = assay: Antitumor Effect with respect to Sarcoma 180 Solid Tumor Mouse; format: in vivo, ICR mice; settings: 10 mg/kg in abdominal cavity, 10 days; day 11
Method: The antitumor effect test was conducted according to the method of the U. S. National Cancer Institute (NCI) (Cancer Chemotherapy Reports part 3, Vol. 3, 1 (1978)). Cell suspension of Sarcoma 180 cells (mouse sarcoma virus) which was employed as the tumor cell strain for transplant was prepared by diluting the cells in the Hank's solution at 2×10^7 cells/ml concentration ([…]), and ICR mice (10 mice per group) aged 5 weeks were injected subcutaneously with 0.2 ml of the cell suspension at the region of the back. Setting the day of the tumor transplantation as day 0. the mice were administered in the abdominal cavity with the compounds of the invention (Preparation Examples 1 and 37), 5-fluorouracyl, and the solution as the control for 10 days consecutively from day 1. On day 11, the mice were sacrificed, and portions of the solid tumor were removed so that weights thereof were measured. The dosage of each of the test samples was 10 mg/kg.

[1] = test system: pain threshold of brewer's yeast inflamed hind paw; assay: Analgesic Action Test (Randall et al.); format: in vivo, SD rats; settings: 3 mg/kg
Method: SD rats (6 rats per group) fasted overnight were employed for the test. After the measurement of pain threshold values of the left and right hind paws twice using an analgesimeter, the rats were injected subcutaneously with 0.1 ml of 20% brewer's yeast solution at the plantar area of the right hind paw to elicit inflammation. Two hours after the elicitation of inflammation, the pain threshold values of the left and right hind paws were measured and, immediately after the measurement, the test samples were administered orally to the rats. Three hours after the administration, the pain threshold values of the left and right hind paws were measured. […] The dosage amount of each of the test samples was 3 mg/kg.
Pain threshold value rising rate (%)=((pain threshold value of 3 hours after drug administration-pain threshold value of 2 hours after yeast administration)/(pain threshold value before yeast administration-pain threshold value of 2 hours after yeast administration))×100
Pain threshold value fluctuation rate (%)=(1 -(pain threshold value of 3 hours after drug administration/pain threshold value of 2 hours after […]

Brewer's Yeast Fever = assay: Antipyretic Action Test With Respect To Brewer's Yeast Fever; format: in vivo, rats
Method: The antipyretic action was measured as described in the following. A sensor was inserted into the rectum of each rats and the body temperature of one hour after the insertion was recorded as the basal body temperature. The rats were injected subcutaneously with 2 ml/body of 20% brewer's yeast at the region of back and, 18 hours after the injection, the intrafebrile body temperatures were measured. Rats who had shown not less than 0.75° C. of body temperature elevation were selected to whom the test samples was administered orally. The body temperatures of the selected rats were measured every one hour for the following 5 hours. The dosage of each of the test samples was 10 mg/kg.

adjuvant arthritis = assay: Rat Adjuvant Arthritis Test; format: in vivo, SD rats; settings: 3 mg/kg, oral
Method: SD rats were injected subcutaneously with […] liquid paraffin/rat of H-37RA strain in the plantar area of the right hind paw. Only liquid paraffin (0.05 ml) was administered to control groups in the same manner. 21 days after the administration, rats showing the evidence of arthritis were selected and divided into groups having equal mean left and right hind paw volumes, and also having equal arthritis scores. From the date of the grouping, the test samples were administered orally to the rats once daily for 7 days (only the solvent was administered to the negative and positive control groups). The degree of the arthritis was quantitatively evaluated by measuring the volumes of the left and right hind paws by using a volume meter (manufactured by Muromachi Kikai) and by scoring the degree of arthritis by macroscopic observation as illustrated in Table 2. According to the scoring criteria in Table 2, 15 is a perfect score.
The dosage of each of the test samples was 3 mg/kg.

carrageenan footedema = assay: Carrageenan Footedema Suppression Test; format: in vivo, SD rats; settings: oral; paw volume three hours after carrageenan administration
Method: The carrageenin footedema suppression test was conducted according to the method of Winter et al. (J. Pharm. Exp. Ther., Vol.141, 369 (1963)). The test samples suspended in Tween 80 were administered orally to SD rats (6 rats per 1 group) in an amount of 1 ml per 100 g of the body weight, while only the solvent was administered in the same manner as above as a control. One hour after the administration, 1% carrageenan physiological saline was injected subcutaneously to the rats in the plantar area of the right hind paw. Three hours after the carrageenan administration, the paw volumes were measured and the edematization rate (%) was calculated with Formula 1 and then edematization suppression rate (%) was calculated with Formula 2.
Edematization rate (%)=((paw volume after carrageenan injection- paw volume before carrageenan injection)/(paw volume before carrageenan injection)×100 Formula: 1
Edematization suppression rate (%)=((edematization rate of control-
edematization rate of test samples)/edematization rate of […]

Human COX-2 = target: T1, Human COX-2 (Homo sapiens, UniProt P35354); assay: Human COX-2 Inhibitory Activity Test (LPS-induced PGE2 in blood); format: cell-based
T1 construct: endogenous in cells; host or cells: heparinised whole blood of a healthy human donor pretreated with aspirin, stimulated with LPS (own knowledge: COX-2 is induced in monocytes)
T1 sequence (P35354 18-604): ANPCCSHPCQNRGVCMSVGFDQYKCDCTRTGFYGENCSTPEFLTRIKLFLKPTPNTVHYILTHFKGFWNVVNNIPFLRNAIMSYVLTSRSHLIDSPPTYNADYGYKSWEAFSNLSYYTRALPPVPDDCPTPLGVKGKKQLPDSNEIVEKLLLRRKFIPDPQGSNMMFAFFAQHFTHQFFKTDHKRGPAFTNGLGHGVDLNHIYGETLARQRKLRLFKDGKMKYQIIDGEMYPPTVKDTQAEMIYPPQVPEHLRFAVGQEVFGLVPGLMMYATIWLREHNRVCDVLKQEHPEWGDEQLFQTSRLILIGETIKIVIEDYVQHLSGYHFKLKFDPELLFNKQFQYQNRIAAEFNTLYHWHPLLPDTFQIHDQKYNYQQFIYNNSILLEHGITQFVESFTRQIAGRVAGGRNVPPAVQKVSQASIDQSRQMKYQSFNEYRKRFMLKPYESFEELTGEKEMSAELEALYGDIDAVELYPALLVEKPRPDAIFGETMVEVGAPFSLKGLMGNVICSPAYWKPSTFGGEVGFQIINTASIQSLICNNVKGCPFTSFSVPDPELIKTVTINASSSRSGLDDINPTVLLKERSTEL
Method: COX-1 and COX-2 activities were measured according to the method of Patrignani et al. (J. Pharm. Exp. Ther. Vol. 271, 1705 (1994)).
(2) COX-2 activity was measured in the following procedure. To blood collected from a healthy normal who had taken 330 mg of aspirin 48 hours before the blood collection in order to inhibit the COX-1 activity, 10 unit/ml of sodium heparin was added, and then pipetted into glass test tubes by 1 ml. 10 μg/ml of Lipopolysaccharide (LPS) was added thereto and the plasma obtained by the specified operation was stored at -40° C. until the measurement for the amount of prostaglandin E2 (PGE2). Test samples containing the test samples were treated in the same manner of operation as described above.
(4) The measurement for the PGE2 content was conducted in the following procedure. In a part of 96 well plate coated with goat anti-mouse antibody, 2 wells were alloted respectively to a blank well, Non-specific Binding (NSB) well, Maximum Binding (B0) well, standard wells at seven concentrations of PGE2 (1000 pg/ml) in doubling dilution ranging from 1000-15.6 pg/ml. The rest of the wells were used for the sample measurement. EIA buffer was added to the NSB wells (100 μl) and to the B0 wells (50 μl), respectively. 50 μl of each of the standard dilution was added in an order from thinner to thicker concentrations. Each of the samples was added to the rest of the wells in an amount of 50 μl. Then, 50 μl of PGE2 tracer was added to each of the wells except for blank wells. Further, 50 μl PGE2 monoclonal antibody was added to each of the wells except for the NSB wells and blank wells, then the well plate was covered with a plastic film and the reaction continued at room temperature for 18 hours. When the reaction was terminated, the wells were washed 5 times with a wash buffer. 200 μl of Elman's reagent was added to each of the wells, and then the well plate was covered with a plastic film and developed for 60 minutes in a dark place. The absorbance at 405 nm was measured by an Immuno Reader (NJ-2000, manufactured by Nippon Intermed Co., Ltd.). From the measurement result, %B/B0 was calculated and, applying it to the approximation formula of Hill Plot, the concentration of the samples was determined to be 40 times concentration. The dilution was conducted with an EIA buffer throughout the Test Example 3.

In the case of `O=c1[nH]cc(F)c(=O)[nH]1` [5-fluorouracil, reference compound], the IC50 (CaCo-2 cells; Caco-2, 72 h) is reported as 3300 nM and the “Tumor Weight” value (Sarcoma 180 solid tumor) is reported as 0.930 g.
`CS(=O)(=O)Nc1ccc([N+](=O)[O-])cc1OC1CCCCC1` [Control Compound (c), N-(2-cyclohexyloxy-4-nitrophenyl)methanesulfonamido, reference compound] was tested, and the “threshold value fluctuation, non-inflammatory paw” value [1] was “exerted no influence on the threshold value fluctuation with respect to the non-inflammatory paw in the same manner as control compound (c)”, the “Pain Threshold Value Fluctuation Rate” value ([1]; po, 3 h) was -1.46% and the “Pain Threshold Value Rising Rate” value ([1]; po, 3 h) was 24.0%. The “Body temperature 1 Hour After” value (Brewer's Yeast Fever; 10 mg/kg oral, 1 hour after) was 37.67 °C, the “Body temperature 3 Hours After” value (Brewer's Yeast Fever; 10 mg/kg oral, 3 hours after) was 37.04 °C and the “Body temperature 5 Hours After” value (Brewer's Yeast Fever; 10 mg/kg oral, 5 hours after) was 37.12 °C. The “Intrafebrile Body Temperature” value (Brewer's Yeast Fever; 18 hours after yeast injection, before administration, 10 mg/kg group) was 38.89 °C and the “Basal Body Temperature” value (Brewer's Yeast Fever; one hour after sensor insertion, before yeast, 10 mg/kg group) was 37.41 °C.
For `COc1ccc2c(c1)c(CC(=O)O)c(C)n2C(=O)c1ccc(Cl)cc1` [Indomethacin, reference compound], the “Right Hind Paw Volume day 21” value (adjuvant arthritis; day 21 (starting date of administration), once daily) was 3.88 mL and the “Right Hind Paw Volume day 27” value (adjuvant arthritis; day 27, once daily for 7 days) was 2.69 mL.
In the case of `Cc1cc(-c2ccc3c(ccn3C)c2)c(-c2ccc(S(C)(=O)=O)cc2)[nH]1` [Preparation Example 37, 4-(5-N-methylindolyl)-2-methyl-5-(4-methylsulfonylphenyl)-1H-pyrrole], the “Edematization Suppression rate” value (carrageenan footedema) is reported as 26.5%, the “cytostatic action” value (CaCo-2 cells; CaCo-2 cells, colon cancer cells) is reported as “demonstrated a cytostatic action with respect to CaCo-2 cells” and the IC50 (CaCo-2 cells; CaCo-2, 72 hours, XTT method) is reported as 950 nM. The “Tumor Weight” value (Sarcoma 180 solid tumor) was 0.906 g, the IC50 (Human COX-2; human blood, LPS, PGE2, IC50 from Hill Plot) was 140 nM and the COX-1/COX-2 (Human COX-2; ratio of IC50 COX-1 to COX-2) was > 714.
